Laboratory results from patent publication US7550438B2, “Methods for production of growth-promoting proteins and peptides for kidney epithelial cells” (The University of Chicago, priority 1997, dated 2009).

Key:
[1] = test system: 3T3 fibroblasts; assay: Growth of 3T3 fibroblasts; type: cell-based, murine
[2] = test system: monkey kidney epithelial cells of the BSC-1 line; assay: Growth-promoting (mitogenic) activity: number of cells in BSC-1 cultures counted four days after addition; type: cell-based, African green monkey
Method: For the assay, cells were detached from the dish with a solution of trypsin and an aliquot was counted in a hemocytometer.
Nontransformed monkey kidney epithelial cells of the BSC-1 line were grown to confluence in Dulbecco's modified Eagle's medium containing 1% calf serum and […] in 55-mm culture dishes at 38° C. in a CO2 incubator. When cells achieved a density of about 10^6 per dish, the spent medium was removed and replaced with fresh medium containing 0.5% calf serum and the 14-amino acid peptide (0.5 μg/ml). Additions of each of the mitogenic signals at maximal concentration were made to the culture medium. Four days later the number of cells in each culture was counted in a hemocytometer. Values obtained were the mean of 3 separate cultures.
Nontransformed monkey kidney epithelial cells of the BSC-1 line were grown to confluence in Dulbecco's modified Eagle's medium containing 1% calf serum and 1.6 μM biotin at 38° C. in a CO2 incubator. When cells achieved a density of about 10^6 per dish, the spent medium was removed and replaced with fresh medium containing 0.5% calf serum and different amounts of the two peptides. Four days later the number of cells in each culture was counted. Each value is the mean of 3 separate cultures.
To delineate the sequence of the smallest peptide that could stimulate renal cell growth, synthetic peptides of different lengths were prepared (see below), and purified by reversed-phase HPLC on a C18 column.
The peptide of interest was then purified on a reversed-phase C18 column HPLC as described herein using a gradient of 1-80% acetonitrile in 0.1% trifluroacetic acid (TFA). The purified peptide was then lyophilized to remove the acetonitrile and TFA and the lyophilized powder was weighed, dissolved in buffer and added to the culture medium to measure its effect on the growth of monkey kidney epithelial cells as described herein. […] A value termed the K1/2, was used.

[3] = Stability of growth-promoting activity to storage, enzyme, chemicals, heat and solvents; type: physicochemical
From the text: For the assay, cells were detached from the dish with a solution of trypsin and an aliquot was counted in a hemocytometer. […] Thus WGF stimulated cell proliferation by 30% in this assay. When high-density, quiescent cultures (3×10^6 cells/55-mm dish) were used to assay mitogenic activity by measuring [^3H]thymidine incorporation into DNA, WGF enhanced DNA synthesis about 60%. To prepare WGF, cells can be scrape-wounded every other day, yet maximal activity will be released into the conditioned medium. WGF is mitogenic for both sparse and confluent cultures of BSC-1 cells, and is stable upon storage at 4° C. to −40° C. for many weeks.
WGF activity was also stable in 0.1% trifluoroacetic acid (TFA) (J. T. Baker, HPLC grade) and isopropanol.

[4] = test system: BSC-1 cells; assay: Appearance or release of WGF growth-promoting activity from BSC-1 cells (scrape wounding, heparinase); type: cell-based, African green monkey; conditions: confluent monolayer treated with the enzyme
Method: None of these agents inhibited cell growth when added to cells of nonwounded cultures. When added to the medium after the appearance of WGF mitogenic activity, neither PMSF nor aprotinin appeared to inhibit the increment in cell proliferation.
Confluent monolayer cultures were mechanically scraped using a 200 μL pipet tip (Continental Laboratory Products, San Diego, Calif.). […] (This process of scraping the cells has been termed “wounding” and has been used for many years as a model system to study repair of corneal abrasions of the eye. In effect, pressure is applied to cells sufficient to disrupt intercellular adhesion). To determine whether kidney epithelial cells released an autocrine growth factor into the medium after wounding, conditioned culture medium was removed from the culture dish after scrape-wounding a monolayer of BSC-1 cells. An aliquot was assayed for any growth-promoting activity on a nonwounded “detector” culture (1.2×10^6 cells per […]).
Treatment of a confluent monolayer of BSC-1 cells with the enzyme heparinase I (Sigma), but not heparinase III (Sigma), releases WGF mitogenic activity from cells into the culture media. However, this seems to deplete WGF, at least temporarily. When cells are first treated with heparinase I, rinsed, the media aspirated, and the monolayer is then scrape-wounded, no growth-promoting activity is detected in the conditioned media.

For AQPYPQGNHEA, the “mitogenic activity on 3T3 fibroblasts” value [1] was “did not stimulate growth”, the “combined mitogenic effect with WGF (additivity)” value ([2]; maximal concentrations, 11-mer with wound conditioned buffer) was “not additive” and the “mitogenic activity on BSC-1 cells (in words)” value ([2]; peptide 0.5 to 20 μg/ml, four days) was “to the same extent as did purified WGF protein”. The EC50 ([2]; peptide alone, BSC-1 cells, 4 days in culture, read-out: Growth-Stimulation K½) was 0.26 µM.

In the case of “basic fibroblast growth factor [basic FGF, reference compound]”, the “concentration equivalent in mitogenic potency to partially-purified WGF” value [2] is reported as 0.02 ng/mL, the “stimulation of growth (increase in cell number compared to control at four days)” value ([2]; agent alone at maximal mitogenic concentration (14-Ser 0.5 μg/ml; EGF, IGF-I 50 ng/ml; acidic FGF 100 pg/ml; basic FGF 1,000 pg/ml; vasopressin 75 pg/ml; K 10.4 mM; Na 180 mM)) is reported as 18% and the “stimulation of growth in the presence of the 14-Ser peptide” value ([2]; mitogenic signal at maximal concentration plus 14-Ser peptide 0.5 μg/ml, four days) is reported as 41%. For the same molecule, the “inhibition of mitogenic activity by 55% acetonitrile/0.1% (TFA)” value [3] was 90%.

B1: heparinase III: enzyme heparinase III (Sigma) (protein, UniProt Q59289 25-659, looked up)
Heparin-sulfate lyase: QSSSITRKDFDHINLEYSGLEKVNKAVAAGNYDDAAKALLAYYREKSKAREPDFSNAEKPADIRQPIDKVTREMADKALVHQFQPHKGYGYFDYGKDINWQMWPVKDNEVRWQLHRVKWWQAMALVYHATGDEKYAREWVYQYSDWARKNPLGLSQDNDKFVWRPLEVSDRVQSLPPTFSLFVNSPAFTPAFLMEFLNSYHQQADYLSTHYAEQGNHRLFEAQRNLFAGVSFPEFKDSPRWRQTGISVLNTEIKKQVYADGMQFELSPIYHVAAIDIFLKAYGSAKRVNLEKEFPQSYVQTVENMIMALISISLPDYNTPMFGDSWITDKNFRMAQFASWARVFPANQAIKYFATDGKQGKAPNFLSKALSNAGFYTFRSGWDKNATVMVLKASPPGEFHAQPDNGTFELFIKGRNFTPDAGVFVYSGDEAIMKLRNWYRQTRIHSTLTLDNQNMVITKARQNKWETGNNLDVLTYTNPSYPNLDHQRSVLFINKKYFLVIDRAIGEATGNLGVHWQLKEDSNPVFDKTKNRVYTTYRDGNNLMIQSLNADRTSLNEEEGKVSYVYNKELKRPAFVFEKPKKNAGTQNFVSIVYPYDGQKAPEISIRENKGNDFEKGKLNLTLTINGKQQLVLVP
For B1, the “release of WGF mitogenic activity from cells into the culture media” value [4] was “not”.
